Reference: patent US10100049B2, “JAK kinase inhibitor compounds for treatment of respiratory disease” (THERAVANCE BIOPHARMA R&D IP, LLC, priority 2015, dated 2018)
Where two headings read alike, the source gives them in different places.

Key:
JAK1 = JAK1 (Homo sapiens (Human), UniProt P23458); experiment: LanthaScreen JAK biochemical assay (JAK1); conditions: for fold less potent than the corresponding compound of the invention in the enzyme assay: JAK1 enzyme assay
[1] = test system: IL-13 induced STAT6 phosphorylation in BEAS-2B human lung epithelial cells; experiment: AlphaScreen cellular potency assay, IL-13 induced STAT6 phosphorylation in BEAS-2B cells; format: cell-based; conditions: for IC50: Homo sapiens
[2] = test system: IL-13 induced pSTAT6 in lung tissue; experiment: Murine model of IL-13 induced pSTAT6 induction in lung tissue; format: in vivo; conditions: mouse lung; for factor by which lung concentration was smaller than that of the corresponding compound of the invention: pharmacodynamic assay; for inhibition in vivo at 500 µg/mL: 0.5 mg/mL, 50 μL oral aspiration, IL-13 challenge 4 h after dosing, lungs collected 1 h later, read-out: pSTAT6 inhibition Assay 5
Description: Il-13 is an important cytokine underlying the pathophysiology of asthma (Kudlacz et al. Eur. J. Pharmacol, 2008, 582, 154-161). IL-13 binds to cell surface receptors activating members of the Janus family of kinases (JAK) which then phosphorylate STAT6 and subsequently activates further transcription pathways. In the described model, a dose of IL-13 was delivered locally into the lungs of mice to induce the phosphorylation of STAT6 (pSTAT6) which is then measured as the endpoint.
Adult balb/c mice from Harlan were used in the assay. On the day of study, animals were lightly anesthetized with isoflurane and administered either vehicle or test compound (0.5 mg/mL, 50 μL total volume over several breaths) via oral aspiration. Animals were placed in lateral recumbency post dose and monitored for full recovery from anesthesia before being returned to their home cage. Four hours later, animals were once again briefly anesthetized and challenged with either vehicle or IL-13 (0.03 μg total dose delivered, 50 μL total volume) via oral aspiration before being monitored for recovery from anesthesia and returned to their home cage. One hour after vehicle or IL-13 administration, lungs were collected for both pSTAT6 detection using an anti-pSTAT6 ELISA (rabbit mAb capture/coating antibody; mouse mAb detection/report antibody: anti-pSTAT6-pY641; secondary antibody: anti-mouse IgG-HRP) and analyzed for total drug concentration as described above in Assay 4.
Selected compounds of the invention were tested in the assay. Activity in the model is evidenced by a decrease in the level of pSTAT6 present in the lungs of treated animals at 5 hours compared to the vehicle treated, IL-13 challenged control animals. The difference between the control animals which were vehicle-treated, IL-13 challenged and the control animals which were vehicle-treated, vehicle challenged dictated the 0% and 100% inhibitory effect, respectively, in any given experiment.

JAK3 = JAK3 (Homo sapiens (Human), UniProt P52333); experiment: LanthaScreen JAK biochemical assay (JAK3); conditions: ATP at Km 1.6 μM; read-out: JAK 3 (pKi) (converted)
Tyk2 = Tyk2 (Homo sapiens (Human), UniProt P29597); experiment: LanthaScreen JAK biochemical assay (Tyk2); conditions: read-out: Tyk 2 (PKi); note: ATP at Km 10 µM
[3] = Pharmacokinetics in plasma and lung in mouse; format: in vivo; conditions: oral aspiration 0.2 mg/mL 50 uL, lung AUC (μg hr/g) / plasma AUC (μg hr/mL)
Description: Plasma and lung levels of test compounds and ratios thereof were determined in the following manner. BALB/c mice from Charles River Laboratories were used in the assay. Test compounds were individually formulated in 20% propylene glycol in pH 4 citrate buffer at a concentration of 0.2 mg/mL and 50 uL of the dosing solution was introduced into the trachea of a mouse by oral aspiration. At various time points (typically 0.167, 2, 6, 24 hr) post dosing, blood samples were removed via cardiac puncture and intact lungs were excised from the mice. Blood samples were centrifuged (Eppendorf centrifuge, 5804R) for 4 minutes at approximately 12,000 rpm at 4° C. to collect plasma. Lungs were padded dry, weighed, and homogenized at a dilution of 1:3 in sterile water. Plasma and lung levels of test compound were determined by LC-MS analysis against analytical standards constructed into a standard curve in the test matrix. A lung to plasma ratio was determined as the ratio of the lung AUC in μg hr/g to the plasma AUC in μg hr/mL, where AUC is conventionally defined as the area under the curve of test compound concentration vs. time.

[4] = test system: Alternaria-induced BALF eosinophils; experiment: Murine model of Alternaria alternata-induced eosinophilic inflammation of the lung; format: in vivo; conditions: mouse; maximum statistically significant inhibition; 0.1-1.0 mg/mL, 50 μL oropharyngeal aspiration; BALF 48 h after alternaria
Description: Airway eosinophilia is a hallmark of human asthma. Alternaria alternata is a fungal aeroallergen that can exacerbate asthma in humans and induces eosinophilic inflammation in the lungs of mice (Havaux et al. Clin Exp Immunol. 2005, 139(2):179-88).
Seven- to nine-week old male C57 mice from Taconic were used in the study. On the day of study, animals were lightly anesthetized with isoflurane and administered either vehicle or test compound (0.1-1.0 mg/mL, 50 μL total volume over several breaths) via oropharyngeal aspiration. Animals were placed in lateral recumbency post dose and monitored for full recovery from anesthesia before being returned to their home cage. One hour later, animals were once again briefly anesthetized and challenged with either vehicle or alternaria extract (200 ug total extract delivered, 50 μL total volume) via oropharyngeal aspiration before being monitored for recovery from anesthesia and returned to their home cage. Forty-eight hours after alternaria administration, bronchoalveolar lavage fluid (BALF) was collected and eosinophils were counted in the BALF using the Advia 120 Hematology System (Siemens).
Selected compounds of the invention were tested in this alternaria assay. Activity in the model is evidenced by a decrease in the level of eosinophils present in the BALF of treated animals at forty-eight hours compared to the vehicle treated, alternaria challenged control animals. Data are expressed as percent inhibition of the vehicle treated, alternaria challenged BALF eosinophils response. To calculate percent inhibition, the number of BALF eosinophils for each condition is converted to percent of the average vehicle treated, alternaria challenged BALF eosinophils and subtracted from one-hundred percent.

JAK2 = JAK2 (Homo sapiens (Human), UniProt O60674)
[5] = read-out: pKi, JAK1 enzyme assay (converted)
[6] = BEAS-2B, read-out: BEAS-2B pIC50 (cellular potency) (converted)
[7] = IL-13 induced STAT6 phosphorylation, BEAS-2B cells, read-out: BEAS-2B pIC50 (converted)

Sequence of JAK2 (O60674 whole entry): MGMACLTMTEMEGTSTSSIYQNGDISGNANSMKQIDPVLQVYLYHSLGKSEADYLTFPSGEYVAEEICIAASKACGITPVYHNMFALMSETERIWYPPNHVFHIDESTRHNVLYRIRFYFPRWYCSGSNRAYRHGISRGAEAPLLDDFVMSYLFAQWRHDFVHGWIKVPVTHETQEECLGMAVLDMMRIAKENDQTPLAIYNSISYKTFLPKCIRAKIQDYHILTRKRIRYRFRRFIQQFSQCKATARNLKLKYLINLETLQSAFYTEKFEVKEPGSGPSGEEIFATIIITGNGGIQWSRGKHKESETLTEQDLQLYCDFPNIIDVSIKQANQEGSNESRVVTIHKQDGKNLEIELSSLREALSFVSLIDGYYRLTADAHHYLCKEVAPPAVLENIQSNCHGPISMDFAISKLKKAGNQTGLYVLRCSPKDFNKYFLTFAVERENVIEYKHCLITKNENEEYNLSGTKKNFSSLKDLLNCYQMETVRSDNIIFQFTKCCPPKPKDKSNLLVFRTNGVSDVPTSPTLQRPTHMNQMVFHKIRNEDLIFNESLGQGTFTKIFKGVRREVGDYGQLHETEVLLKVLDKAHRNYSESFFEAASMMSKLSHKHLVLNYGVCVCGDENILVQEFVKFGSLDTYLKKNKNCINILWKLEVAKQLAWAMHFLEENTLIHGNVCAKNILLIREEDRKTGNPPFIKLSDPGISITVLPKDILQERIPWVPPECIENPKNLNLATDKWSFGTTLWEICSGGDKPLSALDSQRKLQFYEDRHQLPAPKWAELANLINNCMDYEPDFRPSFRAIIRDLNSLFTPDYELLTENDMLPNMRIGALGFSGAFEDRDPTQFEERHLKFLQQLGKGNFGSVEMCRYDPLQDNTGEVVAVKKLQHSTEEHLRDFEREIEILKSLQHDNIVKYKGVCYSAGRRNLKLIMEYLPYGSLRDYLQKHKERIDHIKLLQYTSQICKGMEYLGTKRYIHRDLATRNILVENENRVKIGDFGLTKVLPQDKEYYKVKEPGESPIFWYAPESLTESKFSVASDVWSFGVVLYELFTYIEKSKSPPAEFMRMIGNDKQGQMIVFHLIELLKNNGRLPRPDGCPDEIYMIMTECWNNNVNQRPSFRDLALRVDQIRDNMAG
Sequence of JAK3 (P52333 whole entry): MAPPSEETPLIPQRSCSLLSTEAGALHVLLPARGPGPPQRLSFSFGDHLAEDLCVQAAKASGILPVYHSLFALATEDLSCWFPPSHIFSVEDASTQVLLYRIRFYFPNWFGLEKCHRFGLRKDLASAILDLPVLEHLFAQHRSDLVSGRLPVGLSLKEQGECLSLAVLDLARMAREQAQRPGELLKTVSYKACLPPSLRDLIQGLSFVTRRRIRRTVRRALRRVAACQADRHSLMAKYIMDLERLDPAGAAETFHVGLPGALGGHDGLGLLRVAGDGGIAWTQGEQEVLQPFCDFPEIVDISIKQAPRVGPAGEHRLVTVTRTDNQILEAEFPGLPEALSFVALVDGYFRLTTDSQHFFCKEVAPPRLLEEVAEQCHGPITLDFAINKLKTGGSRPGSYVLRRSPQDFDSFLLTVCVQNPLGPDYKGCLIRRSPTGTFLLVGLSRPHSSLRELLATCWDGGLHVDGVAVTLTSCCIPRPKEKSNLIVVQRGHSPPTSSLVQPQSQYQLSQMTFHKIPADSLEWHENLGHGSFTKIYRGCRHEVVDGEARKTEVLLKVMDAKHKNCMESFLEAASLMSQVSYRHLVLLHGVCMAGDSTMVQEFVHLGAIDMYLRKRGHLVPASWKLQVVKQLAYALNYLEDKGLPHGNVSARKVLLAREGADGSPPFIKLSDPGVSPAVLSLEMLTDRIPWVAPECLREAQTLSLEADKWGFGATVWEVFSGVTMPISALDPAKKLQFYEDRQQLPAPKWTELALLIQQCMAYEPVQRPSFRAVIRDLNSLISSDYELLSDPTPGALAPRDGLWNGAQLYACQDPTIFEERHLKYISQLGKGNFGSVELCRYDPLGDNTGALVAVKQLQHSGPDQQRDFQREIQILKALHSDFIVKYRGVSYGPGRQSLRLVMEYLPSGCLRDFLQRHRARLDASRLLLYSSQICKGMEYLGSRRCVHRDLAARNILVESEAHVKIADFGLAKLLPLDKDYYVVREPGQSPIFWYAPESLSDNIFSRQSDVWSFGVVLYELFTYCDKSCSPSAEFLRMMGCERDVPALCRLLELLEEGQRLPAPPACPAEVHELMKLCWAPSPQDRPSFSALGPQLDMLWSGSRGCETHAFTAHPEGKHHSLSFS
Sequence of JAK1 (P23458 whole entry): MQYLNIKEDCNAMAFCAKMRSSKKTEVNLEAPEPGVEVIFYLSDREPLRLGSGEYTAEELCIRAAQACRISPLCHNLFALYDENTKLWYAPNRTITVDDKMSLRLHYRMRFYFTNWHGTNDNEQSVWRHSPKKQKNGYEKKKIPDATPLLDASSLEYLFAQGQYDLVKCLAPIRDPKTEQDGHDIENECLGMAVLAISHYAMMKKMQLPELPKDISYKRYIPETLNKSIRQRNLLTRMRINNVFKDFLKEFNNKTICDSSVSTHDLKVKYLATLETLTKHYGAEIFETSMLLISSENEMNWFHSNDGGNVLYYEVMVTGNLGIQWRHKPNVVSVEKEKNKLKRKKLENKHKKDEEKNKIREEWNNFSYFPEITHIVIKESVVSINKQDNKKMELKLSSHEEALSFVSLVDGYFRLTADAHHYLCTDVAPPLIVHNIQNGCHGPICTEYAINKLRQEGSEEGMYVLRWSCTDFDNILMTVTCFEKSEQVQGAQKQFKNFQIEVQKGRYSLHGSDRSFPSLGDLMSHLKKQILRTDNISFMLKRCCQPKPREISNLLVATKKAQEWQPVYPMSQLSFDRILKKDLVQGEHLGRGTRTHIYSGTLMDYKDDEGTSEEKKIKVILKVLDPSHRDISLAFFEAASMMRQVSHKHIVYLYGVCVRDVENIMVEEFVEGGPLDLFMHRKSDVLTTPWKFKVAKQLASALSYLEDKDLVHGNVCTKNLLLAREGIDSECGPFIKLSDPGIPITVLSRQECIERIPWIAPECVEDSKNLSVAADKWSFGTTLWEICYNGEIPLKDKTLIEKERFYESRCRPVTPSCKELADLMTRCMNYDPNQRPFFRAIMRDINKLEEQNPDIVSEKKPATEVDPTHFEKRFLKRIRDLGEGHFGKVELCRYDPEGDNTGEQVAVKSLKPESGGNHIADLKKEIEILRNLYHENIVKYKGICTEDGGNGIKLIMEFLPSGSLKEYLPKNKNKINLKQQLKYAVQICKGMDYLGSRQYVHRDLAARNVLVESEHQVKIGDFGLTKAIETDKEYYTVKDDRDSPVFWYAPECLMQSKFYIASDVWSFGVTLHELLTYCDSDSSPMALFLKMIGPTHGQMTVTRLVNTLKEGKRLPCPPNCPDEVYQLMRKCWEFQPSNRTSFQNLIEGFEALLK
Sequence of Tyk2 (P29597 whole entry): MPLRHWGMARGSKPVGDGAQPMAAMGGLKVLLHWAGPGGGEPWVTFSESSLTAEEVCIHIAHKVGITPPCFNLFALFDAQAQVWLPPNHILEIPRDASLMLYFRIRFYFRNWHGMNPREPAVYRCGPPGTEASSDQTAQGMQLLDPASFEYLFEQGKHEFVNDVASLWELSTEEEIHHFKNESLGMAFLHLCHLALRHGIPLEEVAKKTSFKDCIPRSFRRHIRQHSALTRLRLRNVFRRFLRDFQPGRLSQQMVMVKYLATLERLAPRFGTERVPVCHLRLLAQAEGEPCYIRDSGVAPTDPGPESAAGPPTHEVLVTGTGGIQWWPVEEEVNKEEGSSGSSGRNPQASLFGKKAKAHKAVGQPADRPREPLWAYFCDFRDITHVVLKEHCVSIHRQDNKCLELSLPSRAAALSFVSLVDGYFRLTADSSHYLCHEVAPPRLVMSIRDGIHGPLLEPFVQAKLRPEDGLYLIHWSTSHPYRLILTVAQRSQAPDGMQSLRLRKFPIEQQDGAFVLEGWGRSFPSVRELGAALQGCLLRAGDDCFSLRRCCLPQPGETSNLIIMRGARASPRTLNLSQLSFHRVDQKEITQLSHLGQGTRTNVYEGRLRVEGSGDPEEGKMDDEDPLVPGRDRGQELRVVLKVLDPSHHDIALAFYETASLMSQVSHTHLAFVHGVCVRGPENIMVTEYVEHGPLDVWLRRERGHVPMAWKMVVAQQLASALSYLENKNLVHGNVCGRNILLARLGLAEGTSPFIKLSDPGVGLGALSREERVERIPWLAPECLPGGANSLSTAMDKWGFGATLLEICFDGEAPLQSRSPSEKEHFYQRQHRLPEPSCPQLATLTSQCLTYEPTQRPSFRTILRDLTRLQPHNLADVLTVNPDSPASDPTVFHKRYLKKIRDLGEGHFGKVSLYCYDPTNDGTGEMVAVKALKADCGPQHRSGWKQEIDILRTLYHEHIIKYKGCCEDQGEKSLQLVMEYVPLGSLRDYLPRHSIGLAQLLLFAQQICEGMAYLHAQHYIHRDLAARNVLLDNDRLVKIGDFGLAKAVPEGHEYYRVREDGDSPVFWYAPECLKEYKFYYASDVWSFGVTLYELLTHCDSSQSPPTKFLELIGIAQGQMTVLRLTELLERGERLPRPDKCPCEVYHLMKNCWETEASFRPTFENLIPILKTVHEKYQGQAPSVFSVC

Ki (JAK1; [5]) [nM] | SMILES | fold less potent than the corresponding compound of the invention in the enzyme assay (JAK1) [fold] | fold less potent than the corresponding compound of the invention in the BEAS-2B cellular assay [1] [fold] | factor by which lung concentration was smaller than that of the corresponding compound of the invention [2] | IC50 [1, 6] [nM] | Ki (JAK3) [nM] | Ki (Tyk2) [nM] | IC50 [1, 7] [nM] | Lung to Plasma ratio Assay 4 [3] | inhibition in vivo at 500 µg/mL [2] [%] | Percent Inhibition of Alternaria-induced BALF Eosinophils [4] [%] | Ki (JAK2) [nM] | Ki (JAK1; ATP at Km 25 μM, read-out: JAK 1 (pKi) (converted)) [nM]
 | CCc1cc(O)c(F)cc1-c1ccc2c(-c3nc4c([nH]3)CCN(C3CCC(C)CC3)C4)n[nH]c2c1 (centres unmarked) [Example C-4, reference compound] | 2.5 | 6 | 23 |  |  |  |  |  |  |  |  | 
1 to 3.16 | CCc1cc(O)c(F)cc1-c1ccc2c(-c3nc4c([nH]3)CCN(CC3CCCN3C3COC3)C4)n[nH]c2c1 (centres unmarked) [Example 4-8] |  |  |  | 39.8 to 1000 |  |  |  |  |  |  |  | 
 | CCc1cc(O)c(F)cc1-c1ccc2c(-c3nc4c([nH]3)CCN(C3CN(C(C)C)C3)C4)n[nH]c2c1 [Example 3, 5-ethyl-2-fluoro-4-(3-(5-(1-isopropylazetidin-3-yl)-4,5,6,7-tetrahydro-1H-imidazo[4,5-c]pyridin-2-yl)-1H-indazol-6-yl)phenol] |  |  |  |  | 0.1 to 1 | 0.1 to 1 | < 10 | C (C denotes a ratio between 10 and 50) | > 65 | 61 | < 0.1 | 
 | CCc1cc(O)c(F)cc1-c1ccc2c(-c3nc4c([nH]3)CCN(C[C@H]3COCCN3)C4)n[nH]c2c1 [Example 13, (S)-5-Ethyl-2-fluoro-4-(3-(5-(morpholin-3-ylmethyl)-4,5,6,7-tetrahydro-1H-imidazo[4,5-c]pyridin-2-yl)-1H-indazol-6-yl)phenol] |  |  |  |  | 0.1 to 1 | 0.316 to 1 | < 10 | A (A denotes a ratio >100) | 33 to 50 | 82 | < 0.1 | 
 | CCc1cc(O)c(F)cc1-c1ccc2c(-c3nc4c([nH]3)CCN(C3CC(C)C3)C4)n[nH]c2c1 (centres unmarked) [Example C-1, 5-Ethyl-2-fluoro-4-(3-(5-(3-methylcyclobutyl)-4,5,6,7-tetrahydro-1H-imidazo[4,5-c]pyridin-2-yl)-1H-indazol-6-yl)phenol, reference compound] | 2 | 6 | 36 |  |  |  |  |  |  |  |  | 
1 to 3.16 | CCc1cc(O)c(F)cc1-c1ccc2c(-c3nc4c([nH]3)CCN(CC3CCN3C3COC3)C4)n[nH]c2c1 (centres unmarked) [Example 8-11] |  |  |  | 39.8 to 1000 |  |  |  |  |  |  |  | 
 | CCc1cc(O)c(F)cc1-c1ccc2c(-c3nc4c([nH]3)CCN(CCC(C)C)C4)n[nH]c2c1 [Example C-2, reference compound] | 3 | 6 | 52 |  |  |  |  |  |  |  |  | 
 | CCc1cc(O)c(F)cc1-c1ccc2c(-c3nc4c([nH]3)CCN(CCNC3CC(OC)C3)C4)n[nH]c2c1 (centres unmarked) [Example 8, 5-Ethyl-2-fluoro-4-(3-(5-(2-((3-methoxycyclobutyl)amino)ethyl)-4,5,6,7-tetrahydro-1H-imidazo[4,5-c]pyridin-2-yl)-1H-indazol-6-yl)phenol] |  |  |  |  | 0.1 to 1 | 0.1 to 1 | < 10 | A (A denotes a ratio >100) | 50 to 65 | 60 | < 0.1 | 
 | CCc1cc(O)c(F)cc1-c1ccc2c(-c3nc4c([nH]3)CCN(C3CNC3)C4)n[nH]c2c1 [Example 2, 4-(3-(5-(azetidin-3-yl)-4,5,6,7-tetrahydro-1H-imidazo[4,5-c]pyridin-2-yl)-1H-indazol-6-yl)-5-ethyl-2-fluorophenol] |  |  |  |  |  | 0.1 to 1 | 10 to 39.8 | C (C denotes a ratio between 10 and 50) | 33 to 50 | 93 | < 0.1 | 
 | CCc1cc(O)c(F)cc1-c1ccc2c(-c3nc4c([nH]3)CCN(C3CCN(C)CC3)C4)n[nH]c2c1 [Example 6, 5-Ethyl-2-fluoro-4-(3-(5-(1-methylpiperidin-4-yl)-4,5,6,7-tetrahydro-1H-imidazo[4,5-c]pyridin-2-yl)-1H-indazol-6-yl)phenol] |  |  |  |  | 0.1 to 1 | 0.1 to 1 | < 10 | B (B denotes a ratio between 50 and 100) | 50 to 65 | 88 | < 0.1 | 
 | CCc1cc(O)c(F)cc1-c1ccc2c(-c3nc4c([nH]3)CCN(C[C@@H]3CCCN3C)C4)n[nH]c2c1 [Example 11, (S)-5-ethyl-2-fluoro-4-(3-(5-((1-methylpyrrolidin-2-yl)methyl)-4,5,6,7-tetrahydro-1H-imidazo[4,5-c]pyridin-2-yl)-1H-indazol-6-yl)phenol] |  |  |  |  | 0.1 to 1 | 0.316 to 1 | < 10 | A (A denotes a ratio >100) | 33 to 50 | 71 | < 0.1 | 0.1 to 1
 | CCc1cc(O)c(F)cc1-c1ccc2c(-c3nc4c([nH]3)CCN(CCN(C)C)C4)n[nH]c2c1 [Example 7, 4-(3-(5-(2-(dimethylamino)ethyl)-4,5,6,7-tetrahydro-1H-imidazo[4,5-c]pyridin-2-yl)-1H-indazol-6-yl)-5-ethyl-2-fluorophenol] |  |  |  |  |  |  | < 10 | B (B denotes a ratio between 50 and 100) | > 65 | 96 | < 0.1 | 
 | CCc1cc(O)c(F)cc1-c1ccc2c(-c3nc4c([nH]3)CCN(CC3CCCOC3)C4)n[nH]c2c1 (centres unmarked) [Example C-3, reference compound] | 6 | 3 | 13 |  |  |  |  |  |  |  |  | 
 | CCc1cc(O)c(F)cc1-c1ccc2c(-c3nc4c([nH]3)CCN(C3CN(C)C3)C4)n[nH]c2c1 [Example 1, 5-Ethyl-2-fluoro-4-(3-(5-(1-methylazetidin-3-yl)-4,5,6,7-tetrahydro-1H-imidazo[4,5-c]pyridin-2-yl)-1H-indazol-6-yl)phenol] |  |  |  |  |  |  | < 10 | B (B denotes a ratio between 50 and 100) | > 65 | 98 | < 0.1 | 
